Results taken from patent US9962369B2, “Methods and compositions for transdermal delivery” (SPRAYABLE HOLDINGS, INC., priority 2014, dated 2018).

System: human skin tissue
Experiment: Penetration rate of AI compound in AI-helper composition through human skin in vitro, modified Franz cells
Type: in vitro ADME
Conditions: for Skin penetration rate of alpha-lipoic acid: 20° C.; for Skin penetration rate of Al compound: Al compound 0.5% w/v; for Skin penetration rate of Al compound / Skin penetration rate of AI compound: 25 °C
Protocol: Penetration rate of AI compound in the AI-helper composition through human skin were measured in vitro by modified Franz cells. A Franz cell had two chambers: the top sample chamber and the bottom receiving chamber. The human skin tissue (450-500 μm thick) that separated the top and the receiving chambers was isolated from the anterior or posterior thigh areas.

[1] = 2-(Diethylamino)ethyl 2-(4-isobutylphenyl)propionate hydrochloride 6% w/v, water
[2] = D-Phenylalanine isopropyl ester hydrochloride 6% w/v, water
[3] = Dialkylaminoalkyl 2-(4-isobutylphenyl)propionate: None
[4] = L-Phenylalanine isopropyl ester hydrochloride 6% w/v, water
[5] = no isoleucine ester (None), AI compound 0.5 % w/v in water
[6] = no leucine ester (None), AI compound 0.5 % w/v in water
[7] = no tryptophan ester (None), AI compound 0.5 % w/v in water
[8] = with D-isoleucine isopropyl ester hydrochloride 6 % w/v in water, AI compound 0.5 % w/v
[9] = with D-leucine isopropyl ester hydrochloride 6 % w/v in water, AI compound 0.5 % w/v
[10] = with D-tryptophan isopropyl ester hydrochloride 6 % w/v in water, AI compound 0.5 % w/v
[11] = with L-isoleucine isopropyl ester hydrochloride 6 % w/v in water, AI compound 0.5 % w/v
[12] = with L-leucine isopropyl ester hydrochloride 6 % w/v in water, AI compound 0.5 % w/v
[13] = with L-tryptophan isopropyl ester hydrochloride 6 % w/v in water, AI compound 0.5 % w/v

Skin penetration rate of Al compound [1] | Skin penetration rate of Al compound [2] | Skin penetration rate of Al compound [3] | Skin penetration rate of Al compound [4] | Skin penetration rate of Al compound (Phenylalanine ester: None) | Skin penetration rate of AI compound [5] | Skin penetration rate of AI compound [6] | Skin penetration rate of AI compound [7] | Skin penetration rate of AI compound [8] | Skin penetration rate of AI compound [9] | Skin penetration rate of AI compound [10] | Skin penetration rate of AI compound [11] | Skin penetration rate of AI compound [12] | Skin penetration rate of AI compound [13] | also measured | SMILES
30.478 ± 2.982 μg/cm^2/h | 31.796 ± 3.176 μg/cm^2/h | 0.056 ± 0.032 μg/cm^2/h | 32.878 ± 3.568 μg/cm^2/h | 0.058 ± 0.047 μg/cm^2/h | 0.057 ± 0.036 μg/cm^2/h | 0.051 ± 0.023 μg/cm^2/h | 0.071 ± 0.063 μg/cm^2/h | 28.013 ± 2.078 μg/cm^2/h | 27.476 ± 2.116 μg/cm^2/h | 35.456 ± 2.476 μg/cm^2/h | 28.897 ± 2.126 μg/cm^2/h | 28.377 ± 2.378 μg/cm^2/h | 36.378 ± 2.978 μg/cm^2/h | Skin penetration rate of alpha-lipoic acid (0.5% alpha-lipoic acid without helper esters): 0.071 ± 0.063 μg/cm^2/h; Skin penetration rate of alpha-lipoic acid (alpha-lipoic acid 0.5% w/v, Tryptophan isopropyl ester•HA 6% w/v, HA = 1/2H2SO4, water): 33.928 ± 2.876 μg/cm^2/h; Skin penetration rate of alpha-lipoic acid (alpha-lipoic acid 0.5% w/v, Tryptophan isopropyl ester•HA 6% w/v, HA = 1/3H3PO4, water): 34.321 ± 2.867 μg/cm^2/h; Skin penetration rate of alpha-lipoic acid (alpha-lipoic acid 0.5% w/v, Tryptophan isopropyl ester•HA 6% w/v, HA = 2/3H3PO4, water): 34.691 ± 3.511 μg/cm^2/h; Skin penetration rate of alpha-lipoic acid (alpha-lipoic acid 0.5% w/v, Tryptophan isopropyl ester•HA 6% w/v, HA = Acetic acid, water): 35.006 ± 2.892 μg/cm^2/h; Skin penetration rate of alpha-lipoic acid (alpha-lipoic acid 0.5% w/v, Tryptophan isopropyl ester•HA 6% w/v, HA = Benzoic acid, water): 34.665 ± 3.019 μg/cm^2/h; Skin penetration rate of alpha-lipoic acid (alpha-lipoic acid 0.5% w/v, Tryptophan isopropyl ester•HA 6% w/v, HA = Butyric acid, water): 35.178 ± 3.598 μg/cm^2/h; Skin penetration rate of alpha-lipoic acid (alpha-lipoic acid 0.5% w/v, Tryptophan isopropyl ester•HA 6% w/v, HA = Citric acid, water): 35.371 ± 3.587 μg/cm^2/h; Skin penetration rate of alpha-lipoic acid (alpha-lipoic acid 0.5% w/v, Tryptophan isopropyl ester•HA 6% w/v, HA = H2SO4, water): 33.780 ± 2.891 μg/cm^2/h; Skin penetration rate of alpha-lipoic acid (alpha-lipoic acid 0.5% w/v, Tryptophan isopropyl ester•HA 6% w/v, HA = HBr, water): 35.211 ± 3.285 μg/cm^2/h; Skin penetration rate of alpha-lipoic acid (alpha-lipoic acid 0.5% w/v, Tryptophan isopropyl ester•HA 6% w/v, HA = HCl, water): 35.456 ± 2.476 μg/cm^2/h; Skin penetration rate of alpha-lipoic acid (alpha-lipoic acid 0.5% w/v, Tryptophan isopropyl ester•HA 6% w/v, HA = HF, water): 34.673 ± 3.156 μg/cm^2/h; Skin penetration rate of alpha-lipoic acid (alpha-lipoic acid 0.5% w/v, Tryptophan isopropyl ester•HA 6% w/v, HA = HI, water): 34.467 ± 2.583 μg/cm^2/h; Skin penetration rate of alpha-lipoic acid (alpha-lipoic acid 0.5% w/v, Tryptophan isopropyl ester•HA 6% w/v, HA = Lactic acid, water): 35.007 ± 2.879 μg/cm^2/h | O=C(O)CCCCC1CCSS1 (stereo not drawn) [Alpha-lipoic acid]
12.331 ± 2.182 μg/cm^2/h | 12.431 ± 2.178 μg/cm^2/h | 0.019 ± 0.010 μg/cm^2/h | 12.341 ± 2.042 μg/cm^2/h | 0.019 ± 0.011 μg/cm^2/h | 0.013 ± 0.009 μg/cm^2/h | 0.010 ± 0.008 μg/cm^2/h | 0.012 ± 0.013 μg/cm^2/h | 11.354 ± 2.452 μg/cm^2/h | 11.134 ± 2.183 μg/cm^2/h |  | 11.431 ± 2.312 μg/cm^2/h | 11.251 ± 2.112 μg/cm^2/h |  |  | CC1=C(/C=C/C(C)=C/C=C/C(C)=C/C=C/C=C(C)/C=C/C=C(C)/C=C/C2=C(C)C(=O)[C@@H](O)CC2(C)C)C(C)(C)C[C@H](O)C1=O [Astaxanthin]
10.138 ± 2.381 μg/cm^2/h | 10.658 ± 2.003 μg/cm^2/h | 0.015 ± 0.011 μg/cm^2/h | 10.772 ± 2.174 μg/cm^2/h | 0.019 ± 0.008 μg/cm^2/h | 0.015 ± 0.007 μg/cm^2/h | 0.012 ± 0.011 μg/cm^2/h | 0.009 ± 0.013 μg/cm^2/h | 9.471 ± 2.323 μg/cm^2/h | 9.501 ± 2.763 μg/cm^2/h | 11.598 ± 2.173 μg/cm^2/h | 9.412 ± 2.781 μg/cm^2/h | 9.252 ± 2.321 μg/cm^2/h | 11.372 ± 2.326 μg/cm^2/h |  | CC1=C(/C=C/C(C)=C/C=C/C(C)=C/C=C/C=C(C)/C=C/C=C(C)/C=C/C2=C(C)CCCC2(C)C)C(C)(C)CCC1 [Beta Carotene]
6.235 ± 1.356 μg/cm^2/h | 6.771 ± 2.872 μg/cm^2/h | 0.012 ± 0.007 μg/cm^2/h | 6.757 ± 3.012 μg/cm^2/h | 0.012 ± 0.007 μg/cm^2/h | 0.012 ± 0.007 μg/cm^2/h | 0.007 ± 0.012 μg/cm^2/h | 0.009 ± 0.011 μg/cm^2/h | 5.598 ± 2.812 μg/cm^2/h | 5.523 ± 3.012 μg/cm^2/h | 6.725 ± 3.327 μg/cm^2/h | 5.793 ± 3.116 μg/cm^2/h | 5.786 ± 3.162 μg/cm^2/h | 6.915 ± 3.452 μg/cm^2/h |  | Nc1nc2ncc(CNc3ccc(C(=O)N[C@@H](CCC(=O)O)C(=O)O)cc3)nc2c(=O)[nH]1 [Folic acid]
16.356 ± 3.011 μg/cm^2/h | 17.526 ± 2.451 μg/cm^2/h | 0.012 ± 0.010 μg/cm^2/h | 17.358 ± 2.259 μg/cm^2/h | 0.016 ± 0.009 μg/cm^2/h | 0.013 ± 0.011 μg/cm^2/h | 0.011 ± 0.008 μg/cm^2/h | 0.008 ± 0.013 μg/cm^2/h | 14.581 ± 2.183 μg/cm^2/h | 14.121 ± 2.131 μg/cm^2/h | 18.126 ± 3.451 μg/cm^2/h | 14.698 ± 2.321 μg/cm^2/h | 14.128 ± 2.119 μg/cm^2/h | 17.978 ± 3.479 μg/cm^2/h |  | N[C@@H](CCC(=O)N[C@@H](CS)C(=O)NCC(=O)O)C(=O)O [Glutathione]
18.568 ± 3.112 μg/cm^2/h | 18.745 ± 3.112 μg/cm^2/h | 0.015 ± 0.011 μg/cm^2/h | 18.978 ± 2.135 μg/cm^2/h | 0.015 ± 0.011 μg/cm^2/h | 0.016 ± 0.010 μg/cm^2/h | 0.013 ± 0.011 μg/cm^2/h | 0.017 ± 0.021 μg/cm^2/h |  | 16.028 ± 2.862 μg/cm^2/h | 20.728 ± 3.962 μg/cm^2/h | 16.236 ± 2.805 μg/cm^2/h | 16.126 ± 3.005 μg/cm^2/h | 20.177 ± 3.195 μg/cm^2/h |  | Oc1ccc(C=Cc2cc(O)cc(O)c2)cc1 [Resveratrol]
8.711 ± 1.871 μg/cm^2/h | 8.339 ± 2.178 μg/cm^2/h | 0.012 ± 0.006 μg/cm^2/h | 8.372 ± 2.237 μg/cm^2/h | 0.011 ± 0.006 μg/cm^2/h | 0.009 ± 0.007 μg/cm^2/h | 0.008 ± 0.009 μg/cm^2/h | 0.005 ± 0.008 μg/cm^2/h | 7.521 ± 2.312 μg/cm^2/h | 7.231 ± 2.386 μg/cm^2/h | 9.131 ± 2.321 μg/cm^2/h | 7.247 ± 2.076 μg/cm^2/h | 7.175 ± 2.257 μg/cm^2/h | 9.172 ± 2.117 μg/cm^2/h |  | NCCS(=O)(=O)O [Taurine]
 | 16.531 ± 2.106 μg/cm^2/h | 0.023 ± 0.027 μg/cm^2/h | 16.751 ± 2.012 μg/cm^2/h | 0.057 ± 0.011 μg/cm^2/h | 0.022 ± 0.017 μg/cm^2/h | 0.029 ± 0.035 μg/cm^2/h | 0.059 ± 0.031 μg/cm^2/h | 13.468 ± 2.211 μg/cm^2/h |  | 17.131 ± 2.332 μg/cm^2/h | 13.632 ± 2.125 μg/cm^2/h |  | 17.251 ± 2.415 μg/cm^2/h |  | Cc1ncc(CO)c(CO)c1O.Cl [Vitamin B6]
